Source: ChEMBL document CHEMBL1201862, “PubChem BioAssay data set” (2004)
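Test compounds were applied to cells in 96-well plates for 48 hours at 5 doses. At the GI50, growth is halved.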 The source made the active and inactive calls. Rule as the data show it: active = GI50 up to about 1.1 µM and inactive = higher.

What was measured:
Experiment in all cases: inhibition of tumour cell growth, NCI panel, 48 h
786-0 = tested on: 786-0
A549 = tested on: A549
ACHN = tested on: ACHN
BT-549 = tested on: BT-549
CAKI-1 = tested on: CAKI-1
CCRF-CEM = tested on: CCRF-CEM
COLO 205 = tested on: COLO 205
DU-145 = tested on: DU-145
EKVX = tested on: EKVX
HCC 2998 = tested on: HCC 2998
HCT-116 = tested on: HCT-116
HCT-15 = tested on: HCT-15
HL-60 = tested on: HL-60
HOP-62 = tested on: HOP-62
HOP-92 = tested on: HOP-92
HT-29 = tested on: HT-29
Hs-578T = tested on: Hs-578T
IGROV-1 = tested on: IGROV-1
K562 = tested on: K562
KM12 = tested on: KM12
LOX IMVI = tested on: LOX IMVI
M14 = tested on: M14
MCF7 = tested on: MCF7
MDA-MB-231 = tested on: MDA-MB-231
MDA-MB-435 = tested on: MDA-MB-435
MDA-N = tested on: MDA-N
MOLT-4 = tested on: MOLT-4
Malme-3M = tested on: Malme-3M
NCI-H226 = tested on: NCI-H226
NCI-H23 = tested on: NCI-H23
NCI-H460 = tested on: NCI-H460
NCI-H522 = tested on: NCI-H522
NCI/ADR-RES = tested on: NCI/ADR-RES
OVCAR-3 = tested on: OVCAR-3
OVCAR-4 = tested on: OVCAR-4
OVCAR-5 = tested on: OVCAR-5
OVCAR-8 = tested on: OVCAR-8
PC-3 = tested on: PC-3
RPMI-8226 = tested on: RPMI-8226
RXF 393 = tested on: RXF 393
SF-268 = tested on: SF-268
SF-295 = tested on: SF-295
SF-539 = tested on: SF-539
SK-MEL-28 = tested on: SK-MEL-28
SK-MEL-2 = tested on: SK-MEL-2
SK-MEL-5 = tested on: SK-MEL-5
SK-OV-3 = tested on: SK-OV-3
SN12C = tested on: SN12C
SNB-19 = tested on: SNB-19
SNB-75 = tested on: SNB-75
SR = tested on: SR
SW-620 = tested on: SW-620
T47D = tested on: T47D
TK-10 = tested on: TK-10
U-251 = tested on: U-251
UACC-257 = tested on: UACC-257
UACC-62 = tested on: UACC-62
UO-31 = tested on: UO-31
A498 = tested on: A498

Measured: GI50

C[C@]12CC[C@H]3[C@@H](CCC4=C[C@@H](N5CCCC5)CC[C@@]43C)[C@@H]1C/C(=C\c1ccncc1)[C@@H]2O
inactive: 786-0 2.86 µM | A549 12.3 µM | ACHN 17 µM | BT-549 18.3 µM | CAKI-1 28.8 µM | COLO 205 6.32 µM | DU-145 15.9 µM | EKVX 15.7 µM | HCC 2998 5.07 µM | HCT-116 7.91 µM | HL-60 16 µM | HOP-62 4.68 µM | HOP-92 15.9 µM | Hs-578T 13.8 µM | IGROV-1 20.6 µM | K562 3.24 µM | KM12 9.57 µM | LOX IMVI 8.57 µM | M14 2.39 µM | MCF7 12.8 µM | MDA-MB-231 13.9 µM | MDA-MB-435 10.3 µM | MDA-N 11.4 µM | MOLT-4 7.73 µM | Malme-3M 13.6 µM | NCI-H226 15.6 µM | NCI-H23 15.5 µM | NCI-H460 11.6 µM | NCI-H522 10.3 µM | NCI/ADR-RES 17.6 µM | OVCAR-3 16.4 µM | OVCAR-4 18 µM | OVCAR-5 18 µM | OVCAR-8 24.9 µM | PC-3 13.6 µM | RPMI-8226 4.79 µM | RXF 393 5.16 µM | SF-268 16.5 µM | SF-295 4.91 µM | SF-539 9.35 µM | SK-MEL-28 7.31 µM | SK-MEL-2 16.4 µM | SK-MEL-5 12 µM | SK-OV-3 18 µM | SN12C 14.1 µM | SNB-19 14.5 µM | SNB-75 14.3 µM | SR 3.16 µM | SW-620 13.4 µM | T47D 16.4 µM | TK-10 13.2 µM | U-251 12.6 µM | UACC-257 6.19 µM | UACC-62 15.8 µM | UO-31 4.92 µM
8.43 µM: HCT-15
active: CCRF-CEM 0.445 µM | HT-29 0.631 µM

CC(C)=CCc1c(OC(=O)c2c(C)cc(O)cc2O)cc(CO)c(CO)c1O
inactive: 786-0 31.4 µM | A498 17.3 µM | A549 6.43 µM | ACHN 14.4 µM | BT-549 18.7 µM | CAKI-1 5.48 µM | CCRF-CEM > 10 µM | COLO 205 17.9 µM | DU-145 25.1 µM | EKVX 32.4 µM | HCC 2998 16.4 µM | HCT-116 20.9 µM | HL-60 4.5 µM | HOP-92 17.7 µM | HT-29 21.2 µM | Hs-578T 20.1 µM | IGROV-1 19.2 µM | K562 7.62 µM | KM12 16.2 µM | LOX IMVI 16.2 µM | M14 20.8 µM | MCF7 24 µM | MDA-MB-231 15.5 µM | MDA-MB-435 17.7 µM | MDA-N 19.1 µM | MOLT-4 16.3 µM | Malme-3M 17.5 µM | NCI-H226 34 µM | NCI-H23 16.8 µM | NCI-H460 17.6 µM | NCI-H522 18 µM | NCI/ADR-RES 30.1 µM | OVCAR-4 16 µM | OVCAR-5 20.4 µM | OVCAR-8 25 µM | PC-3 18 µM | SF-268 26.7 µM | SF-295 17.2 µM | SF-539 18.6 µM | SK-MEL-28 18.5 µM | SK-MEL-2 21.3 µM | SK-MEL-5 14.8 µM | SK-OV-3 16.2 µM | SN12C 18.5 µM | SNB-19 8.07 µM | SNB-75 12.6 µM | SR 20.7 µM | SW-620 > 10 µM | T47D 6.85 µM | TK-10 26.3 µM | U-251 17.5 µM | UACC-257 29.9 µM | UACC-62 15.2 µM | UO-31 12.2 µM
17.7 µM: HCT-15
